Results taken from US10160867B2, “Benzoxaborole-containing coating resistant to cellulose-supportable fungus” (THE PENN STATE RESEARCH FOUNDATION, priority 2015, dated 2018).
≈ marks a conversion by molar mass, not a printed value. Each block holds one molecule with its values, some of them ahead of it.

Columns and labels:
Type in all cases: cell-based
Penicillium chrysogenum [1] = test: Fungus resistance test for painted surfaces containing antifungal additives (defacement rating)
Experimental: (§1) A Defacement Rating is measured by estimating the percentage of surface defacement with 10 being no defacement and 0 begin completely defaced.
(§2) This test was used to evaluate the resistance of paint films containing antifungal additives to surface fungal growth.
(§3) Olympic® Home interior flat latex paint (PPG Industries, Pittsburgh, Pa.) and Valspar® QuikHide White flat interior paint (Valspar Corporation, Minneapolis, Minn.) were used for all studies unless otherwise noted. Stock solutions of the antifungal additives of interest were prepared in reagent grade dimethyl sulfoxide (DMSO; Alfa Aesar, Ward Hill, Mass.). Additives were spiked (by adding appropriate amounts of the antifungal stock solutions) into the liquid paint at specified concentrations. Samples of the additive-spiked paint were vigorously mixed with a vortex mixer for at least one minute to ensure uniform dispersion of the additive in the paint. […] Studies that use other brands of paint followed the same protocol as described for those using the Olympic® Home interior flat latex paint and Valspar® QuikHide paint.
(§4) Test surfaces were prepared in triplicate. In most cases, the tested conditions were repeated on a different date, again in triplicate. […] Two coats of paint were applied with a polyester brush to completely cover both faces of the filter paper disc, allowing at least four hours drying time between coats.
(§5) Nutrient-Salts Agar (NSA) medium was prepared according to ASTM method G21-13 in 100×15 mm sterile polystyrene petri dishes (VWR® Radnor, Pa.) with a solidified agar layer of about 3 to about 6 mm (⅛ to ¼ in.) in depth. The agar was allowed to solidify for at least 24 hours before being used. The painted test filter paper discs were placed in the center of the agar plates in a biosafety hood while wearing clean nitrile gloves.
(§6) The paint coatings were evaluated against three representative cellulose-supportable fungi: Stachybotrys chartarum, Penicillium chrysogenum, and Alternaria alternata. […] Fungal isolates of Alternaria alternata and Penicillium chrysogenum were obtained from the Plant Pathology and Environmental Microbiology Department at Penn State University.
(§7) A spore suspension of each of these fungi was prepared by pouring a 20-mL portion of autoclaved deionized water containing 0.01% Tween® 20 onto a subculture of each fungal species. Spores were counted with the use of a hemocytometer (Hausser Scientific, Horsham, Pa.) under a compound light microscope. Spore suspensions of Stachybotrys chartarum and Penicillium chrysogenum were diluted to 1×10^6 spores/mL with autoclaved deionized water. Spore suspensions of Alternaria alternata were used “as is” in the range of 200,000 to 400,000 spores/mL.
(§8) Painted test surfaces were inoculated with a spray bottle or with a sterile cotton-tipped applicator. To inoculate the sample with a spray bottle, the spore suspension was sprayed twice on the painted test discs with an autoclaved spray bottle that delivered approximately 0.14 g of fluid per spray. To inoculate the sample with a cotton-tipped applicator, an autoclaved cotton-tipped applicator was submerged in approximately 400 μL of the spore inoculum solution (spore concentrations described above) and applied evenly over the surface of the painted test surface twice. A fresh autoclaved cotton-tipped applicator was used for the application of each painted disc. All the paint studies with Alternaria alternata and Stachybotrys chartarum were inoculated using the spray bottle method. For studies with Penicillium chrysogenum using Olympic® Home paint, the spray bottle inoculation method was used. For studies with Penicillium chrysogenum using Valspar® QuikHide paint, the cotton-tipped applicator inoculation method was used.
(§9) After inoculation, the NSA agar plates were sealed with Parafilm®.

Stachybotrys chartarum [2] = test: as above; details: +100 μg/mL in Olympic Home paint
Experimental: as §1, §2, §3, §4, §5, §6, §7, §8, §9

Alternaria alternata [3] = test: as above; details: +100 μg/mL in Olympic Home paint
Experimental: as §1, §2, §3, §4, §5, §6, §7, §8, §9

Penicillium chrysogenum [4] = test: Fungus resistance test after painting over fungal growth (defacement rating); details: painted over fungal growth, +200 μg/mL in Valspar QuikHide paint
Description: (§10) In this series of experiments, fungal growth was allowed to cover a painted surface (surface containing 2 coats of the unaltered paint) to a defacement rating of 3-5, forming a ‘contaminated surface’. […] The paint application was extended approximately 1-2 cm beyond the edge of the disc onto the NSA medium. Each formulation used a separate brush to avoid cross contamination. The re-painted discs were placed back into the humid environment with elevated temperature to encourage fungal growth.
(§11) This test was used to evaluate the ability of paint films containing antifungal additives to prevent the re-emergence of fungal growth after painting over existing growth.
(§12) Olympic® Home interior flat latex paint (PPG Industries, Pittsburgh, Pa.) and Valspar® QuikHide White flat interior paint (Valspar Corporation, Minneapolis, Minn.) were used for the experiments in this study unless specified. Stock solutions of the antifungal additives of interest were prepared in reagent grade dimethyl sulfoxide (DMSO; Alfa Aesar, Ward Hill, Mass.). Additives were spiked (by adding appropriate amounts of the antifungal stock solutions) into the liquid paint at specified concentrations. Samples of additive-spiked paint were vigorously mixed with a vortex mixer for at least one minute to insure uniform dispersion of the additive in the paint. […] Studies that used other brands of paint followed the same protocol as described for those using the Olympic® Home interior flat latex paint.
as §4
as §5, with “media” for “medium”, “from” for “of about”, “to” for “to about”
as §6, with “representative” for “representative cellulose-supportable”
(§13) A spore suspension of each of these fungi was prepared by pouring a 20-mL portion of autoclaved deionized water containing 0.01% Tween® 20 onto a subculture of each fungal species. Spores were counted with the use of a hemocytometer (Hausser Scientific, Horsham, Pa.) under a microscope. Spore suspensions of Stachybotrys chartarum and Penicillium chrysogenum were diluted to 1×10^6 spores/mL with autoclaved deionized water. Spore suspensions of Alternaria alternata were used “as is” in the range of 200,000 to 400,000 spores/mL.
(§14) Painted test surfaces were inoculated with a spray bottle or with a cotton-tipped applicator. To inoculate the sample with a spray bottle, the spore suspension was sprayed twice on the painted test discs with a spray bottle that delivered approximately 0.14 g of fluid per spray. To inoculate the sample with a cotton-tipped applicator, an autoclaved cotton-tipped applicator was submerged in approximately 400 μL of the inoculum solution and applied evenly over the surface of the painted test surface twice.

Stachybotrys chartarum [5] = test: as above; details: for Average defacement rating ± standard deviation: painted over fungal growth, +100 μg/mL in Olympic Home paint; for ability to inhibit Stachybotrys chartarum re-emergence on the surfaces: painting over contaminated surfaces, paints containing 100 μg/mL, after 7 days
Description: as §10, §11, §12, §4
as §5, with “media” for “medium”, “from” for “of about”, “to” for “to about”
as §6, with “representative” for “representative cellulose-supportable”
as §13, §14

Alternaria alternata [6] = test: as above; details: painted over fungal growth, +100 μg/mL in Olympic Home paint
Description: as §10, §11, §12, §4
as §5, with “media” for “medium”, “from” for “of about”, “to” for “to about”
as §6, with “representative” for “representative cellulose-supportable”
as §13, §14

Stachybotrys chartarum [7] = test: 3 day MIC, broth microdilution in 25% PDB; details: 72 h, 25% PDB, read-out: 3 day MIC
Experimental: (§15) Stock solutions (concentrations of between 4,000 μg/mL to 10,000 μg/mL; stored at −18° C.) of the above antifungals were prepared in dimethyl sulfoxide (DMSO). The stock solutions were further diluted into sterile 25% potato dextrose broth (PDB) so that the diluted solutions could be used for the antifungal susceptibility studies. This way, a typical microdilution study would reach a final ratio of about 0.5-2% v/v of DMSO in 25% PDB.
(§16) Spore inocula were prepared in sterile distilled water with 0.1% Tween® 20 (a polysorbate surfactant), and a hemocytometer was used to determine the spore density. Typically, the spore inoculum was prepared fresh prior to each study, and the inoculum was appropriately diluted to a final concentration of 0.4-1×10^5 spores/mL or colony-forming unit (CFU)/mL in each study. The spore suspension can be stored in a refrigerator at 4° C. for up to one week.
(§17) The studies were performed in flat bottom, 96-well microtiter plates (Greiner Bio-One, Frickenhausen, Germany).
(§18) Plates sealed with clear polyester film (VWR, Radnor, Pa.) were incubated at a temperature of about 25° C. The progress of fungal growth was monitored at 48 hours and 72 hours.

Alternaria alternata [8] = test: 3 day MIC, broth microdilution in 25% PDB; details: 72 h, 25% PDB, read-out: 3 day MIC
Experimental: as §15, §16, §17, §18

Aureobasidium pullulans = test: 3 day MIC, broth microdilution in 25% PDB; details: 72 h
Experimental: as §15, §16
(§19) The minimal inhibitory concentrations (MICs) for individual antifungal agents were determined by following a modified broth microdilution protocol CLSI (Clinical and Laboratory Standards Institute) M38-A2 [Clinical and Laboratory Standards Institute (2008) Reference method for broth dilution antifungal susceptibility testing of filamentous fungi—2nd edition: Approved Standard M38-A2, CLSI, Wayne, Pa.] where 25% potato dextrose broth (PDB) was used as the medium. The studies were performed in flat bottom, 96-well microtiter plates (Greiner Bio-One, Frickenhausen, Germany).
as §18

Mucor spp. = test: 3 day MIC, broth microdilution in 25% PDB; details: 72 h
Experimental: as §15, §16, §19, §18

Fusarium oxysparum ST-33 = test: 3 day MIC, broth microdilution in 25% PDB; details: ST33, 72 h
Experimental: as §15, §16, §19, §18

Aspergillus niger = test: 3 day MIC, broth microdilution in 25% PDB; details: 72 h
Experimental: as §15, §16, §19, §18

Aspergillus fumigatus = test: 3 day MIC, broth microdilution in 25% PDB; details: 72 h
Experimental: as §15, §16, §19, §18

Rhizopus spp. = test: 3 day MIC, broth microdilution in 25% PDB; details: 72 h
Experimental: as §15, §16, §19, §18

Aspergillus flavus = test: 3 day MIC, broth microdilution in 25% PDB; details: 72 h
Experimental: as §15, §16, §19, §18

SMILES: OB1OCc2ccccc21 [Compound B0, 2-(hydroxymethyl)-benzene boronic acid hemiester]
Average defacement rating ± standard deviation (Penicillium chrysogenum [1]; +100 μg/mL in Olympic Home paint, 7 days): 2.7 ± 0.8
Average defacement rating ± standard deviation (Penicillium chrysogenum [1]; +100 μg/mL in Olympic Home paint, 14 days): 0.0 ± 0.0
Average defacement rating ± standard deviation (Penicillium chrysogenum [1]; +100 μg/mL in Olympic Home paint, 21 days): 0.0 ± 0.0
Average defacement rating ± standard deviation (Penicillium chrysogenum [1]; +200 μg/mL in Olympic Home paint, 7 days): 10.0 ± 0.0
Average defacement rating ± standard deviation (Penicillium chrysogenum [1]; +200 μg/mL in Olympic Home paint, 14 days): 6.8 ± 4.0
Average defacement rating ± standard deviation (Penicillium chrysogenum [1]; +200 μg/mL in Olympic Home paint, 21 days): 5.0 ± 5.5
Average defacement rating ± standard deviation (Penicillium chrysogenum [1]; +200 μg/mL in Valspar QuikHide paint, 7 days): 10.0 ± 0.0
Average defacement rating ± standard deviation (Penicillium chrysogenum [1]; +200 μg/mL in Valspar QuikHide paint, 14 days): 6.8 ± 4.0
Average defacement rating ± standard deviation (Penicillium chrysogenum [1]; +200 μg/mL in Valspar QuikHide paint, 21 days): 5.0 ± 5.5
Average defacement rating ± standard deviation (Stachybotrys chartarum [2]; 7 days): 0.7 ± 1.3
Average defacement rating ± standard deviation (Stachybotrys chartarum [2]; 14 days): 0.0 ± 0.0
Average defacement rating ± standard deviation (Stachybotrys chartarum [2]; 21 days): 0.0 ± 0.0
Average defacement rating ± standard deviation (Alternaria alternata [3]; 7 days): 2.3 ± 2.3
Average defacement rating ± standard deviation (Alternaria alternata [3]; 14 days): 0.5 ± 1.8
Average defacement rating ± standard deviation (Alternaria alternata [3]; 21 days): 0.0 ± 0.0
Average defacement rating ± standard deviation (Penicillium chrysogenum [4]; 7 days): 0.0 ± 0.0 (9)
Average defacement rating ± standard deviation (Penicillium chrysogenum [4]; 14 days): 0.0 ± 0.0 (9)
Average defacement rating ± standard deviation (Penicillium chrysogenum [4]; 21 days): 0.0 ± 0.0 (9)
Average defacement rating ± standard deviation (Stachybotrys chartarum [5]; 7 days): 6.1 ± 3.3 (9)
Average defacement rating ± standard deviation (Stachybotrys chartarum [5]; 14 days): 4.4 ± 3.0 (9)
Average defacement rating ± standard deviation (Stachybotrys chartarum [5]; 21 days): 3.9 ± 2.9 (9)
Average defacement rating ± standard deviation (Alternaria alternata [6]; 7 days): 2.1 ± 1.6 (6)
Average defacement rating ± standard deviation (Alternaria alternata [6]; 14 days): 1.0 ± 1.3 (6)
Average defacement rating ± standard deviation (Alternaria alternata [6]; 21 days): 0.4 ± 0.6 (6)

MIC (Stachybotrys chartarum [7]): 0.5 µg/mL (≈ 3.38 µM)
MIC (Alternaria alternata [8]): 6.3 µg/mL (≈ 42.6 µM)
MIC (Aureobasidium pullulans): 1 µg/mL (≈ 6.76 µM)
MIC (Mucor spp.): 1 µg/mL (≈ 6.76 µM)
MIC (Fusarium oxysparum ST-33): 1 µg/mL (≈ 6.76 µM)
MIC (Aspergillus niger): 2 µg/mL (≈ 13.5 µM)
MIC (Aspergillus fumigatus): 0.25 µg/mL (≈ 1.69 µM)
MIC (Rhizopus spp.): 16 µg/mL (≈ 108 µM)
MIC (Aspergillus flavus): 2 µg/mL (≈ 13.5 µM)
SMILES: Cc1ccc2c(c1)COB2O [Compound B1, 5-Methyl-1,3-dihydro-2,1-benzoxaborol-1-ol]
ability to inhibit Stachybotrys chartarum re-emergence on the surfaces (Stachybotrys chartarum [5]): very little ability to inhibit

MIC (Stachybotrys chartarum [7]): 6.3 µg/mL (≈ 38 µM)
MIC (Alternaria alternata [8]): 200 µg/mL (≈ 1210 µM)
SMILES: OB1OCCc2cc(F)ccc21 [Compound B5, 6-fluoro-3,4-dihydro-1H-2,1-benzoxaborinin-1-ol]
ability to inhibit Stachybotrys chartarum re-emergence on the surfaces (Stachybotrys chartarum [5]): very little ability to inhibit
